Laboratory results published in publication PMC5855688, “BC-Box Motif-Mediated Neuronal Differentiation of Somatic Stem Cells” (International Journal of Molecular Sciences, 2018).

Test system: skin-derived precursors (SKPs)
Assay: Neurite outgrowth / morphological evaluation of neuronal differentiation
Assay type: cell-based, rat (neonate Wistar)
Settings: delivered with TAT PTD, 1 to 5 μM
Description: Rodent skin-derived precursor cells (SKPs), which can differentiate to neurons, were used. SKPs were previously isolated from the back dermis of neonate Wistar rats by the authors. These cells were cultured in growth medium composed of DMEM/F12 (1:1; Gibco, Grand Island, NY, USA) containing 2% B27 supplement (Gibco), 20 ng/mL epidermal growth factor (EGF; Upstate Biotechnology, Lake Placid, NY, USA), and 40 ng/mL bFGF (PeproTech EC Ltd., Rocky Hill, NJ, USA) in a humidified incubator at 37 °C with 5% CO2. The floating clusters of cultured cells were centrifuged and dissociated into a single-cell suspension by use of a Pasteur pipette with a flame-polished tip. These single cells were then re-suspended into at a concentration of 50,000 cells/mL for passage or experiments. […]
Neurite outgrowth with length exceeding the diameter of the neuronal soma is often assessed as a morphological index of neuronal differentiation. […] Thereafter, neurite outgrowth was evaluated with the following 4 levels: +++, for above 50% of the cells showing neurite outgrowth; ++, for 20–50% with neurite outgrowth; +, for 5–19% having neurite outgrowth; and −, for below 5% of the cells with neurite outgrowth.

With “YARAAARQARASLTHLCRLEI [ASB3 BC-box motif alone]” the “Neurite Outgrowth Activity” value (BC-box motif alone (10-residue) peptides) was “- (below 5% of the cells with neurite outgrowth)”.

“YARAAARQARASLTHLCRLEIRSSIK [ASB3 BC-box motif plus five amino acids]” was tested, and the “Neurite Outgrowth Activity” value (BC-box motif plus five C-terminal amino acids peptides) was “++ (20–50% with neurite outgrowth)”.
